The assay deals with hATX/ENPP2 (Homo sapiens, UniProt Q13822). In words: hATX/ENPP2 biochemical assay using 16:0-LPC as substrate (Amplex Red/choline oxidase/HRP fluorescence). Particulars: hENPP2 2.5 nM, LPC (16:0) substrate. The method in brief: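 Enzyme preincubated with compounds 15 min at room temperature in 50 mM Tris-HCl pH 8.0, 140 mM NaCl, 5 mM CaCl2, 0.01% Triton X-100. Reaction started with 80 μM LPC (16:0) stock plus Amplex Red/choline oxidase/HRP mix; fluorescence (ex 530/em 590 nm) read kinetically. IC50 from slope between 60 and 70 min.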

SMILES strings stand for the structures. Where a name gives a salt, the structure may show the parent alone.

As usually defined, the IC50 is the concentration needed to halve the response being measured. Lower therefore signals inhibition by little substance. `CCc1nc2ccc(-c3ccc(N4CCC(NC5CNC5)CC4)nc3)cn2c1N(C)c1nc(-c2ccc(F)cc2)c(C#N)s1` [Compound 89 hydrochloride, 2-((6-(6-(4-(azetidin-3-ylamino)piperidin-1-yl)pyridin-3-yl)-2-ethylimidazo[1,2-a]pyridin-3-yl)(methyl)amino)-4-(4-fluorophenyl)thiazole-5-carbonitrile hydrochloride] gave a concentration for half-maximal inhibition (IC50) of no more than 20 nM.
The same measure for `CCc1nc2ccc(-c3ccc(N4CCC(NC5CCNCC5)CC4)nc3)cn2c1N(C)c1nc(-c2ccc(F)cc2)c(C#N)s1` [Compound 90, 2-((2-ethyl-6-(6-(4-(piperidin-4-ylamino)piperidin-1-yl)pyridin-3-yl)imidazo[1,2-a]pyridin-3-yl)(methyl)amino)-4-(4-fluorophenyl)thiazole-5-carbonitrile]: no more than 20 nM; for `CCc1nc2ccc(-c3ccc(N4CCN(CC(=O)N5CC[C@H](O)C5)CC4)nc3)cn2c1N(C)c1nc(-c2ccc(F)cc2)c(C#N)s1` [Compound 91, (S)-2-((2-ethyl-6-(6-(4-(2-(3-hydroxypyrrolidin-1-yl)-2-oxoethyl)piperazin-1-yl)pyridin-3-yl)imidazo[1,2-a]pyridin-3-yl)(methyl)amino)-4-(4-fluorophenyl) thiazole-5-carbonitrile]: no more than 20 nM.
The same measure for `CCc1nc2ccc(-c3ccc(N4CCN(C(=O)NC5CCNCC5)CC4)nc3)cn2c1N(C)c1nc(-c2ccc(F)cc2)c(C#N)s1` [Compound 94, 4-(5-(3-((5-cyano-4-(4-fluorophenyl)thiazol-2-yl)(methyl)amino)-2-ethylimidazo[1,2-a]pyridin-6-yl)pyridin-2-yl)-N-(piperidin-4-yl)piperazine-1-carboxamide]: 20 to 200 nM; for `CCc1nc2ccc(-c3ccc(N4CCN(C(=O)[C@@H]5C[C@@H](O)CN5)CC4)nc3)cn2c1N(C)c1nc(-c2ccc(F)cc2)c(C#N)s1` [Compound 95, 2-((2-ethyl-6-(6-(4-((2S,4R)-4-hydroxypyrrolidine-2-carbonyl)piperazin-1-yl)pyridin-3-yl)imidazo[1,2-a]pyridin-3-yl)(methyl)amino)-4-(4-fluorophenyl)thiazole-5-carbonitrile]: no more than 20 nM; for `CCc1nc2ccc(-c3ccc(N4CCN(C(=O)NC5CNC5)CC4)nc3)cn2c1N(C)c1nc(-c2ccc(F)cc2)c(C#N)s1` [Compound 96 hydrochloride, N-(azetidin-3-yl)-4-(5-(3-((5-cyano-4-(4-fluorophenyl)thiazol-2-yl)(methyl)amino)-2-ethylimidazo[1,2-a]pyridin-6-yl)pyridin-2-yl) piperazine-1-carboxamide hydrochloride]: 20 to 200 nM.
As for `CCc1nc2ccc(-c3ccc(N4CC(C(=O)NC5(CO)CC5)C4)nc3)cn2c1N(C)c1nc(-c2ccc(F)cc2)c(C#N)s1` [Compound 97, 1-(5-(3-((5-cyano-4-(4-fluorophenyl)thiazol-2-yl)(methyl)amino)-2-ethylimidazo[1,2-a]pyridin-6-yl)pyridin-2-yl)-N-(1-(hydroxymethyl)cyclopropyl)azetidine-3-carboxamide], the figure is 20 to 200 nM; as for `CCc1nc2ccc(-c3ccc(N4CCC(NC(=O)C5(O)CC5)CC4)nc3)cn2c1N(C)c1nc(-c2ccc(F)cc2)c(C#N)s1` [Compound 98, N-(1-(5-(3-((5-cyano-4-(4-fluorophenyl)thiazol-2-yl)(methyl)amino)-2-ethylimidazo[1,2-a]pyridin-6-yl)pyridin-2-yl)piperidin-4-yl)-1-hydroxycyclopropane-1-carboxamide], no more than 20 nM.
For `CCc1nc2ccc(-c3cnc(C4CCN(C(=O)C5CC5)CC4)nc3)cn2c1N(C)c1nc(-c2ccc(F)cc2)c(C#N)s1` [Compound 99, 2-((6-(2-(1-(cyclopropanecarbonyl)piperidin-4-yl)pyrimidin-5-yl)-2-ethylimidazo[1,2-a]pyridin-3-yl)(methyl)amino)-4-(4-fluorophenyl)thiazole-5-carbonitrile], the IC50 lay in the range of 20 to 200 nM.
As for `CCc1nc2ccc(-c3cnc(C4CCN(C(=O)C5CCC5)CC4)nc3)cn2c1N(C)c1nc(-c2ccc(F)cc2)c(C#N)s1` [Compound 100, 2-((6-(2-(1-(cyclobutanecarbonyl)piperidin-4-yl)pyrimidin-5-yl)-2-ethylimidazo[1,2-a]pyridin-3-yl)(methyl)amino)-4-(4-fluorophenyl)thiazole-5-carbonitrile], the figure is 20 to 200 nM; as for `CCc1nc2ccc(-c3cnc(C4CCN(C(=O)N5CCC5)CC4)nc3)cn2c1N(C)c1nc(-c2ccc(F)cc2)c(C#N)s1` [Compound 101, 2-((6-(2-(1-(azetidine-1-carbonyl)piperidin-4-yl)pyrimidin-5-yl)-2-ethylimidazo[1,2-a]pyridin-3-yl)(methyl)amino)-4-(4-fluorophenyl)thiazole-5-carbonitrile], 20 to 200 nM.
The same measure for `CCc1nc2ccc(-c3cnc(C4CCN(C(=O)N5CCCC5)CC4)nc3)cn2c1N(C)c1nc(-c2ccc(F)cc2)c(C#N)s1` [Compound 102, 2-((2-ethyl-6-(2-(1-(pyrrolidine-1-carbonyl)piperidin-4-yl)pyrimidin-5-yl)imidazo[1,2-a]pyridin-3-yl)(methyl)amino)-4-(4-fluorophenyl)thiazole-5-carbonitrile]: 20 to 200 nM.
The same measure for `CCc1nc2ccc(-c3cnc(C4CCN(CC(=O)N5CCC5)CC4)nc3)cn2c1N(C)c1nc(-c2ccc(F)cc2)c(C#N)s1` [Compound 103, 2-((6-(2-(1-(2-(azetidin-1-yl)-2-oxoethyl)piperidin-4-yl)pyrimidin-5-yl)-2-ethylimidazo[1,2-a]pyridin-3-yl)(methyl)amino)-4-(4-fluorophenyl)thiazole-5-carbonitrile]: 20 to 200 nM; for `CCc1nc2ccc(-c3cnc(C4CCN(CC(=O)N5CCCC5)CC4)nc3)cn2c1N(C)c1nc(-c2ccc(F)cc2)c(C#N)s1` [Compound 104, 2-((2-ethyl-6-(2-(1-(2-oxo-2-(pyrrolidin-1-yl)ethyl)piperidin-4-yl)pyrimidin-5-yl)imidazo[1,2-a]pyridin-3-yl)(methyl)amino)-4-(4-fluorophenyl)thiazole-5-carbonitrile]: 20 to 200 nM; for `CCc1nc2ccc(-c3cnc(N4CC(NC5CC5)C4)nc3)cn2c1N(C)c1nc(-c2ccc(F)cc2)c(C#N)s1` [Compound 105, 2-((6-(2-(3-(cyclopropylamino)azetidin-1-yl)pyrimidin-5-yl)-2-ethylimidazo[1,2-a]pyridin-3-yl)(methyl)amino)-4-(4-fluorophenyl)thiazole-5-carbonitrile]: 20 to 200 nM.
`CCc1nc2ccc(-c3cnc(N4CC(NC5CCC5)C4)nc3)cn2c1N(C)c1nc(-c2ccc(F)cc2)c(C#N)s1` [Compound 106, 2-((6-(2-(3-(cyclobutylamino)azetidin-1-yl)pyrimidin-5-yl)-2-ethylimidazo[1,2-a]pyridin-3-yl)(methyl)amino)-4-(4-fluorophenyl)thiazole-5-carbonitrile] yielded an IC50 of 20 to 200 nM.
As for `CCc1nc2ccc(-c3cnc(N4CCC(NC5CC5)CC4)nc3)cn2c1N(C)c1nc(-c2ccc(F)cc2)c(C#N)s1` [Compound 107, 2-((6-(2-(4-(cyclopropylamino)piperidin-1-yl)pyrimidin-5-yl)-2-ethylimidazo[1,2-a]pyridin-3-yl)(methyl)amino)-4-(4-fluorophenyl)thiazole-5-carbonitrile], the figure is 20 to 200 nM; as for `CCc1nc2ccc(-c3cnc(N4CCC(NC5CCC5)CC4)nc3)cn2c1N(C)c1nc(-c2ccc(F)cc2)c(C#N)s1` [Compound 108, 2-((6-(2-(4-(cyclobutylamino)piperidin-1-yl)pyrimidin-5-yl)-2-ethylimidazo[1,2-a]pyridin-3-yl)(methyl)amino)-4-(4-fluorophenyl)thiazole-5-carbonitrile], 20 to 200 nM.
The same measure for `CCc1nc2ccc(-c3cnc(N4CCN(C(=O)C5CC5)CC4)nc3)cn2c1N(C)c1nc(-c2ccc(F)cc2)c(C#N)s1` [Compound 110, 2-((6-(2-(4-(cyclopropanecarbonyl)piperazin-1-yl)pyrimidin-5-yl)-2-ethylimidazo[1,2-a]pyridin-3-yl)(methyl)amino)-4-(4-fluorophenyl) thiazole-5-carbonitrile]: 20 to 200 nM; for `CCc1nc2ccc(-c3cnc(N4CCN(C(=O)C5CN(C6CC6)C5)CC4)nc3)cn2c1N(C)c1nc(-c2ccc(F)cc2)c(C#N)s1` [Compound 111, 2-((6-(2-(4-(1-cyclopropylazetidine-3-carbonyl)piperazin-1-yl)pyrimidin-5-yl)-2-ethylimidazo[1,2-a]pyridin-3-yl)(methyl)amino)-4-(4-fluorophenyl)thiazole-5-carbonitrile]: 20 to 200 nM; for `CCc1nc2ccc(-c3ccc(N4CCN(C(=O)C5CCCC5)CC4)nc3)cn2c1N(C)c1nc(-c2ccc(F)cc2)c(C#N)s1` [Compound 112, 2-((6-(6-(4-(cyclopentanecarbonyl)piperazin-1-yl)pyridin-3-yl)-2-ethylimidazo[1,2-a]pyridin-3-yl)(methyl)amino)-4-(4-fluorophenyl)thiazole-5-carbonitrile]: 20 to 200 nM.

The record behind these values is US11970493B2, “Autotaxin inhibitor compounds” (ILDONG PHARMACEUTICAL CO., LTD., priority 2020, dated 2024).
